Assay results from publication PMC8619202, “Optimization of Microwave-Assisted Green Method for Enhanced Solubilization of Water-Soluble Curcuminoids Prepared Using Steviol Glycosides” (Foods, 2021).
≈ marks a conversion by molar mass, not a printed value.

Assays:
[1] = cited from earlier work; for solubility in dimethyl sulfoxide / solubility in ethanol / solubility in water: from C. longa
[2] = Storage stability of curcuminoids solubilized in steviol glycoside solutions, HPLC; conditions: for stability of solubilized curcuminoids at room temperature: 10% (w/v) SG, protected from light, 24 h
Method: (§1) In order to evaluate the stability in 10% (w/v) SGs, the water-soluble curcuminoids were analyzed by HPLC for 1 month. […] In order to achieve better solubility, transglycosylation is regarded as an important procedural phenomenon that leads to structural modifications and derivatizations that result in enhanced biological activities and improved solubility. Moreover, heating in the case of microwave irradiation is usually dependent on the nature of the sample, the solvent employed, and the irradiation power level mediated through the ionic conduction and dipole rotation (also known as dipole polarization) of the microwaves. In the absence of ions, water dipoles are found in the free form and may experience dipole rotation due to microwave radiation-induced oscillation.

[3] = Solubility of curcuminoids in the presence of steviol glycosides, with or without microwave or other physical treatment, HPLC; conditions: steviol glycoside 10% w/v; for Bisdemethoxycurcumin (mg/mL) NT / Curcumin (mg/mL) NT / Demethoxycurcumin (mg/mL) NT / Total Curcuminoids (mg/mL) NT: not treated by microwave
Method: The effect of water concentration to extract curcuminoids was investigated. […] The mixture in an ethanol solution was vortexed for 15 min and centrifuged at 12,000× g for 10 min (SupraR30, W × D × H: 710 × 1000 × 1260 mm, Hanil Scientific Inc., Gimp, Korea). The supernatant was transferred to a new tube and ethanol was evaporated. The resulting powders were dissolved in water, centrifuged at 12,000× g for 10 min, and filtered through a 0.20 μm membrane (Agilent, Santa Clara, CA, USA).
Weighing of the appropriate amounts of each steviol glycoside and curcuminoids was carried out, and they were put into 50 mL glass bottles. Furthermore, the suspension of curcuminoid–SG was subjected to heating by exposure to microwave irradiation in a microwave-assisted extractor (CEM, Matthews, NC, USA) at 100 W and 25 °C. Prior to conducting chromatographic analyses as per the reported method of Nguyen et al., the filtration of all samples was performed using a 0.45 μm nylon syringe filter (Millipore, Billerica, MA, USA). The quantitative concentration determination of curcuminoids and SGs was performed by employing series of standard solutions of curcuminoid in methanol with concentrations ranging from 0.15 to 10 μg/mL according to the reported method. Chromatographic separation for quantitative analysis was carried out using an Agilent 1200 liquid chromatographic system (Agilent Technologies, Palo Alto, CA, USA) equipped with an autosampler, quaternary HPLC pump, degasser, ZORBAX SB-C18 column (5 μm, 4.6 × 150 mm), and UV detector (VWD) set at 210 and 260 nm. The mobile phase for HPLC consisted of solvent A, which was 0.1% trifluoroacetic acid in water, and solvent B, which was 0.1% trifluoroacetic acid in acetonitrile. The solvent gradient was as follows (relative to solvent A): 0 min, 80% A; 10 min, 75% B; 20 min, 65% B; 30 min, 50% B; 40 min, 40%; 50 min, 30%; 60 min, 0% B; 0 min, 20%; 10 min, 25% B; 20 min, 35% B; 30 min, 50%; 40 min, 60%; 50 min, 70%; and 60 min, 100%. The column temperature was maintained at 30 °C with an injection volume of 10 μL at a flow rate of 1.0 mL/min.
as §1

## O=C(/C=C/c1ccc(O)cc1)CC(=O)/C=C/c1ccc(O)cc1 [BDMC, bisdemethoxycurcumin]
[1]
  solubility in dimethyl sulfoxide: 25000 µg/mL (≈ 81.1 mM)
  solubility in ethanol: 10000 µg/mL (≈ 32.4 mM)
  solubility in water: 11 µg/mL (≈ 0.0357 mM)

## COc1cc(/C=C/C(=O)CC(=O)/C=C/c2ccc(O)c(OC)c2)ccc1O [Curcumin, curcumin]
[1]
  solubility in dimethyl sulfoxide: 25000 µg/mL (≈ 67.9 mM)
  solubility in ethanol: 10000 µg/mL (≈ 27.1 mM)
  solubility in water: 11 µg/mL (≈ 0.0299 mM)

## COc1cc(/C=C/C(O)=C/C(=O)/C=C/c2ccc(O)cc2)ccc1O [DMC, demethoxycurcumin]
[1]
  solubility in dimethyl sulfoxide: 25000 µg/mL (≈ 73.9 mM)
  solubility in ethanol: 10000 µg/mL (≈ 29.6 mM)
  solubility in water: 11 µg/mL (≈ 0.0325 mM)

## C=C1C[C@@]23CC[C@H]4[C@@](C)(CCC[C@@]4(C)C(=O)O[C@@H]4O[C@H](CO)[C@@H](O)[C@H](O)[C@H]4O)[C@@H]2CC[C@]1(O[C@@H]1O[C@H](CO)[C@@H](O)[C@H](O)[C@H]1O)C3 [R, rubusoside]
[1]; 10% rubusoside aqueous solution (w/v)
  solubility of curcumin in rubusoside aqueous solution: 600 to 2300 µg/mL
[2]
  stability of solubilized curcuminoids at room temperature: highly stable
  stability of aqueous curcuminoid solutions on long-term storage: did not exhibit good stability

## C=C1C[C@@]23CC[C@H]4[C@@](C)(CCC[C@@]4(C)C(=O)O)[C@@H]2CC[C@]1(O[C@@H]1O[C@H](CO)[C@@H](O)[C@H](O)[C@H]1O)C3 [SMG, steviol mono-glucoside]
[3]
  Total Curcuminoids Ratio Microwave /NT (fold): 7.3 fold
  Bisdemethoxycurcumin (mg/mL) NT: 0.04 ± 0.01 mg/mL
  Curcumin (mg/mL) NT: 0.46 ± 0.1 mg/mL
  Demethoxycurcumin (mg/mL) NT: 0.04 ± 0.01 mg/mL
  Total Curcuminoids (mg/mL) NT: 0.54 ± 0.1 mg/mL
  Bisdemethoxycurcumin (mg/mL) Microwave: 0.52 ± 0.1 mg/mL
  Curcumin (mg/mL) Microwave: 2.52 ± 0.15 mg/mL
  Demethoxycurcumin (mg/mL) Microwave: 0.88 ± 0.1 mg/mL
  Total Curcuminoids (mg/mL) Microwave: 3.92 ± 0.5 mg/mL

## C=C1C[C@@]23CC[C@H]4[C@@](C)(CCC[C@@]4(C)C(=O)O[C@@H]4O[C@H](CO)[C@@H](O)[C@H](O)[C@H]4O)[C@@H]2CC[C@]1(O[C@@H]1O[C@H](CO)[C@@H](O)[C@H](O)[C@H]1O[C@@H]1O[C@H](CO)[C@@H](O)[C@H](O)[C@H]1O)C3 [ST, stevioside]
[2]
  stability of solubilized curcuminoids at room temperature: highly stable

## α-glucosyl stevioside [STG]
[2]
  stability of aqueous curcuminoid solutions on long-term storage: very good stability
[3]
  Total Curcuminoids Ratio Microwave /NT (fold): 7.0 fold
  Bisdemethoxycurcumin (mg/mL) NT: 0.04 ± 0.01 mg/mL
  Curcumin (mg/mL) NT: 0.51 ± 0.2 mg/mL
  Demethoxycurcumin (mg/mL) NT: 0.05 ± 0.01 mg/mL
  Total Curcuminoids (mg/mL) NT: 0.61 ± 0.1 mg/mL
  Bisdemethoxycurcumin (mg/mL) Microwave: 0.69 ± 0.2 mg/mL
  Curcumin (mg/mL) Microwave: 2.72 ± 0.3 mg/mL
  Demethoxycurcumin (mg/mL) Microwave: 0.83 ± 0.1 mg/mL
  Total Curcuminoids (mg/mL) Microwave: 4.24 ± 0.6 mg/mL
